Measurements reported in PubChem BioAssay (NCI).
“And” between values parts separate entries of the source, which are not always exact repeats. Equal values may be shown once.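 Exposure lasted 48 hours, with cells grown in 96-well plates and compounds tested at five concentrations. GI50: concentration for 50% inhibition of growth. At the TGI there is no net growth.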

How the values were obtained:
Assay in all cases: inhibition of tumour cell growth, NCI panel, 48 h
[1] = system: HCT-116 colon
[2] = system: SR leukemia
[3] = system: RPMI-8226 leukemia
[4] = system: UACC-257 melanoma
[5] = system: OVCAR-5 ovarian
[6] = system: RXF 393 renal
[7] = system: SNB-75 CNS
[8] = system: SK-OV-3 ovarian
[9] = system: XF 498 CNS
[10] = system: M14 melanoma
[11] = system: 786-0 renal
[12] = system: UACC-62 melanoma
[13] = system: HOP-62 NSCLC
[14] = system: M19-MEL melanoma
[15] = system: LOX IMVI melanoma
[16] = system: DMS 273 small cell lung
[17] = system: LXFL 529 NSCLC
[18] = system: K-562 leukemia
[19] = system: SW-620 colon
[20] = system: HCC-2998 colon
[21] = system: HL-60(TB) leukemia
[22] = system: ACHN renal
[23] = system: U251 CNS
[24] = system: DLD-1 colon
[25] = system: NCI-H23 lung
[26] = system: SK-MEL-28 melanoma
[27] = system: MALME-3M melanoma
[28] = system: UO-31 renal
[29] = system: HOP-18 NSCLC
[30] = system: CCRF-CEM leukemia
[31] = system: SN12C renal
[32] = system: OVCAR-3 ovarian
[33] = system: NCI-H522 lung
[34] = system: HOP-92 NSCLC
[35] = system: HT29 colon
[36] = system: NCI-H226 lung
[37] = system: TK-10 renal
[38] = system: SK-MEL-2 melanoma
[39] = system: SF-268 CNS
[40] = system: KM12 colon
[41] = system: SF-295 CNS
[42] = system: SNB-19 CNS
[43] = system: MOLT-4 leukemia
[44] = system: DMS 114 small cell lung
[45] = system: KM20L2 colon
[46] = system: IGROV1 ovarian
[47] = system: A498 renal
[48] = system: SNB-78 CNS
[49] = system: SF-539 CNS
[50] = system: A549 NSCLC
[51] = system: EKVX NSCLC
[52] = system: OVCAR-8 ovarian
[53] = system: OVCAR-4 ovarian
[54] = system: COLO 205 colon
[55] = system: NCI-H460 lung
[56] = system: RXF-631 renal
[57] = system: HCT-15 colon
[58] = system: SK-MEL-5 melanoma
[59] = system: CAKI-1 renal

## C1=CC2CCC1CN2CCC1CNc2ccccc21 (centres undefined)
[1]
  TGI: > 100 µM
[2]
  TGI: > 100 µM
[3]
  TGI: > 100 µM
[4]
  TGI: > 100 µM
[5]
  TGI: > 100 µM
[6]
  TGI: > 100 µM
[7]
  TGI: > 100 µM
[8]
  TGI: > 100 µM
[9]
  TGI: > 100 µM
[10]
  TGI: > 100 µM
[11]
  TGI: > 100 µM
[12]
  TGI: > 100 µM
[13]
  TGI: > 100 µM
[14]
  TGI: > 100 µM
[15]
  TGI: > 100 µM
[16]
  TGI: > 100 µM
[17]
  TGI: > 100 µM
[18]
  TGI: > 100 µM
[19]
  TGI: > 100 µM
[20]
  TGI: > 100 µM
[21]
  TGI: > 100 µM
[22]
  TGI: > 100 µM
[23]
  TGI: > 100 µM
[24]
  TGI: > 100 µM
[25]
  TGI: > 100 µM
[26]
  TGI: > 100 µM
[27]
  TGI: > 100 µM
[28]
  TGI: > 100 µM
[29]
  TGI: > 100 µM
[30]
  TGI: > 100 µM
[31]
  TGI: > 100 µM
[32]
  TGI: > 100 µM
[33]
  TGI: > 100 µM
[34]
  TGI: > 100 µM
[35]
  TGI: > 100 µM
[36]
  TGI: > 100 µM
[37]
  TGI: > 100 µM
[38]
  TGI: > 100 µM
[39]
  TGI: > 100 µM
[40]
  TGI: > 100 µM
[41]
  TGI: > 100 µM
[42]
  TGI: > 100 µM
[43]
  TGI: > 100 µM
[44]
  TGI: > 100 µM
[45]
  TGI: > 100 µM
[46]
  TGI: > 100 µM
[47]
  TGI: > 100 µM
[48]
  TGI: > 100 µM
[49]
  TGI: > 100 µM
[50]
  TGI: > 100 µM
[51]
  TGI: > 100 µM
[52]
  TGI: > 100 µM

## CCOC(=O)C1=C(OC(OCC)C(CC)[Se]c2ccccc2)CCC1 (centres undefined)
[1]
  TGI: > 100 µM
[2]
  TGI: 83.4 µM
[53]
  TGI: 28 µM
[3]
  TGI: 53.2 µM
[4]
  TGI: 77.4 µM
[5]
  TGI: 69.6 µM
[6]
  TGI: 37.7 µM
[54]
  TGI: > 100 µM
[7]
  TGI: 69.8 µM
[8]
  TGI: > 100 µM
[9]
  TGI: 46.8 µM
[10]
  TGI: 31.6 µM
[11]
  TGI: 30.5 µM
[12]
  TGI: 81.1 µM
[13]
  TGI: > 100 µM
[14]
  TGI: 30.8 µM
[15]
  TGI: 20.5 µM
[16]
  TGI: 29.2 µM
[17]
  TGI: 77 µM
[55]
  TGI: > 100 µM
[18]
  TGI: > 100 µM
[56]
  TGI: 32.9 µM
[57]
  TGI: 42.9 µM
[20]
  TGI: > 100 µM
[21]
  TGI: 39.1 µM
[22]
  TGI: > 100 µM
[23]
  TGI: 25.3 µM
[24]
  TGI: 45.4 µM
[25]
  TGI: 27.5 µM
[26]
  TGI: 92.8 µM
[58]
  TGI: 31.2 µM
[27]
  TGI: 56.7 µM
[28]
  TGI: 96.2 µM
[29]
  TGI: 69.5 µM
[30]
  TGI: 36.2 µM
[31]
  TGI: 47.2 µM
[32]
  TGI: 69.3 µM
[33]
  TGI: 29.1 µM
[34]
  TGI: 45.8 µM
[35]
  TGI: 58.1 µM
[36]
  TGI: 53.5 µM
[37]
  TGI: > 100 µM
[59]
  TGI: > 100 µM
[38]
  TGI: > 100 µM
[39]
  TGI: 36.8 µM
[40]
  TGI: > 100 µM
[41]
  TGI: 65.5 µM
[42]
  TGI: > 100 µM
[43]
  TGI: 73.5 µM
[44]
  TGI: 15.6 µM
[45]
  TGI: > 100 µM
[46]
  TGI: > 100 µM
[47]
  TGI: > 100 µM
[48]
  TGI: 97.4 µM
[49]
  TGI: 37.4 µM
[50]
  TGI: > 100 µM
[51]
  TGI: 91.2 µM
[52]
  TGI: > 100 µM

## COc1cc(OC)c2c(=O)c3cccc([N+](=O)[O-])c3n(C)c2c1
[53]
  TGI: > 100 µM
[3]
  TGI: > 100 µM
[4]
  TGI: > 100 µM
[6]
  TGI: > 100 µM
[54]
  TGI: > 100 µM
[7]
  TGI: > 100 µM
[8]
  TGI: > 100 µM
[9]
  TGI: > 100 µM
[10]
  TGI: > 100 µM
[11]
  TGI: > 100 µM
[12]
  TGI: > 100 µM
[15]
  TGI: > 100 µM
[16]
  TGI: > 100 µM
[17]
  TGI: > 100 µM
[18]
  TGI: > 100 µM
[56]
  TGI: > 100 µM
[57]
  TGI: > 100 µM
[19]
  TGI: > 100 µM
[21]
  TGI: > 100 µM
[23]
  TGI: > 100 µM
[25]
  TGI: > 100 µM
[26]
  TGI: > 100 µM
[58]
  TGI: > 100 µM
[27]
  TGI: > 100 µM
[28]
  TGI: > 100 µM
[30]
  TGI: > 100 µM
[31]
  TGI: > 100 µM
[33]
  TGI: > 100 µM
[35]
  TGI: > 100 µM
[37]
  TGI: > 100 µM
[59]
  TGI: > 100 µM
[38]
  TGI: > 100 µM
[39]
  TGI: > 100 µM
[40]
  TGI: > 100 µM
[41]
  TGI: > 100 µM
[42]
  TGI: > 100 µM
[43]
  TGI: > 100 µM
[44]
  TGI: > 100 µM
[45]
  TGI: > 100 µM
[46]
  TGI: > 100 µM
[48]
  TGI: > 100 µM
[49]
  TGI: > 100 µM
[50]
  TGI: > 100 µM
[51]
  TGI: > 100 µM
[52]
  TGI: > 100 µM

## COc1ccc(/C=C\c2cc(OC)c(OC)c(OC)c2)cc1
[1]
  TGI: > 100 µM
[2]
  TGI: 78.7 µM
[3]
  TGI: > 100 µM
[5]
  TGI: 90.8 µM
[54]
  TGI: 11.5 µM
[7]
  TGI: 0.000932 µM
[8]
  GI50: 99.3 µM
  TGI: > 100 µM
[10]
  TGI: > 100 µM
[11]
  TGI: > 100 µM
[12]
  TGI: > 100 µM
[13]
  TGI: > 100 µM
[14]
  TGI: > 100 µM
[16]
  TGI: > 100 µM
[17]
  TGI: > 100 µM
[55]
  TGI: 15.6 µM
[18]
  TGI: > 100 µM
[56]
  TGI: > 100 µM
[22]
  TGI: > 100 µM
[23]
  TGI: 1.25 µM
[24]
  TGI: > 100 µM
[25]
  TGI: 0.0118 µM
[58]
  TGI: 14.5 µM
[27]
  TGI: > 100 µM
[28]
  TGI: 8.66 µM
[30]
  TGI: > 100 µM
[31]
  TGI: > 100 µM
[32]
  TGI: 0.000152 µM
[33]
  TGI: 0.00151 µM
[35]
  TGI: 13.6 µM
[36]
  TGI: 0.222 µM and 0.0693 µM
[59]
  TGI: 43.4 µM
[38]
  TGI: > 100 µM
[39]
  GI50: 0.0443 µM
  TGI: > 100 µM
[40]
  TGI: > 100 µM
[41]
  TGI: 0.000719 µM
[43]
  TGI: 3.09 µM
[44]
  TGI: > 100 µM
[46]
  TGI: > 100 µM
[47]
  TGI: 13.2 µM
[49]
  TGI: 0.00384 µM
[50]
  TGI: > 100 µM
[52]
  TGI: > 100 µM
